Data from patent publication US8461328B2, “Tricyclic heterocyclic compounds, compositions and methods of use thereof” (Genentech, Inc., priority 2010, dated 2013).
pKi: −log10 of the molar value.

Legend:
Format in all cases: biochemical
TYK2 = molecular target: T1, TYK2 (Homo sapiens, UniProt P29597); assay: TYK2 inhibition (Table 4)
T1 construct: made in house; host or cells: SF9 insect cells (baculovirus)
T1 sequence (P29597 873-1187): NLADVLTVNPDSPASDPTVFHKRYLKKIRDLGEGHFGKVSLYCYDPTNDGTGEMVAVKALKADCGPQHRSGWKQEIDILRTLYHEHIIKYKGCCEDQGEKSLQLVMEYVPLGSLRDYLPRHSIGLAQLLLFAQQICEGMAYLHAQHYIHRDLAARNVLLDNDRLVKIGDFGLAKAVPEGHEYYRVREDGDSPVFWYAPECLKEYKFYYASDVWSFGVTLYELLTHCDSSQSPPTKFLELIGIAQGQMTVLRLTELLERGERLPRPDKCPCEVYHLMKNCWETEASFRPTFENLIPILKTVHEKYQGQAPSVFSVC

JAK2 = molecular target: T2, JAK2 (Homo sapiens, UniProt O60674); assay: JAK2 inhibition (Table 4); settings: read-out: JAK2 Ki
T2 construct: made in house; host or cells: SF9 insect cells (baculovirus)
T2 sequence (O60674 812-1132): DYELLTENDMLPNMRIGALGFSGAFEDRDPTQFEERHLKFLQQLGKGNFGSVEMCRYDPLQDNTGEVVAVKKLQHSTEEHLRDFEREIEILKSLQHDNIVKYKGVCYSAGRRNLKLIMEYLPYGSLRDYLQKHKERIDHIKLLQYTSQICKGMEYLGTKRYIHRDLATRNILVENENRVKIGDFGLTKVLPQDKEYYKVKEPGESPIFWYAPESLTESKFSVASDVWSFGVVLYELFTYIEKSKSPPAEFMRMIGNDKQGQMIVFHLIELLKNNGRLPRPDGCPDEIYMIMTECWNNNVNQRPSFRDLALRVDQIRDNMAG

JAK3 = molecular target: T3, JAK3 (Homo sapiens, UniProt P52333); assay: JAK3 inhibition (Table 4); settings: read-out: JAK3 Ki
T3 construct: made in house; host or cells: SF9 insect cells (baculovirus)
T3 sequence (P52333 783-1124): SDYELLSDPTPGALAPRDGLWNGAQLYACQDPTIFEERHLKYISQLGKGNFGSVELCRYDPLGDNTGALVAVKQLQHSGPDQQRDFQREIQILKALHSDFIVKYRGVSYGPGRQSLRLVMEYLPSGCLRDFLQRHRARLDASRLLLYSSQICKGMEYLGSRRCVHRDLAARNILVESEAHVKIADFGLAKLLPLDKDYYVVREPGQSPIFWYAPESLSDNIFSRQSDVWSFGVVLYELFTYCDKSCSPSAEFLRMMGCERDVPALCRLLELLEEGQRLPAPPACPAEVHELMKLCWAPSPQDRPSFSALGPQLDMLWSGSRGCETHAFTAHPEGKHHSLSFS

JAK1 = molecular target: T4, JAK1 (Homo sapiens, UniProt P23458); assay: JAK1 inhibition (Table 4); settings: read-out: JAK1 Ki
T4 construct: made in house; host or cells: SF9 insect cells (baculovirus)
T4 sequence (P23458 852-1154): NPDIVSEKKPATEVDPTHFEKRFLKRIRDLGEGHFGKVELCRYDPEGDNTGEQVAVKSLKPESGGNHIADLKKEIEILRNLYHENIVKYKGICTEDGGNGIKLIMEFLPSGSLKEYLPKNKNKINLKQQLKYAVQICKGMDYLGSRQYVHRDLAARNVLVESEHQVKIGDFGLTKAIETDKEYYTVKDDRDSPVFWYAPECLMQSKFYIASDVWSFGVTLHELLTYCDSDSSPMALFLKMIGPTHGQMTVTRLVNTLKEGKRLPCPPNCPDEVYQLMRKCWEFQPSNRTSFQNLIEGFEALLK

Structure (SMILES)	pKi (TYK2)	pKi (JAK2)	pKi (JAK3)	pKi (JAK1)
C[C@@H](O)c1nc2cnc3[nH]ccc3c2n1[C@@H]1CCCN(C(=O)CC2CC2)C1 [Example 791, 2-Cyclopropyl-1-{(R)-3-[2-((R)-1-hydroxy-ethyl)-6H-1,3,5,6-tetraaza-as-indacen-1-yl]-piperidin-1-yl}-ethanone]	6.09	5.97	6.09	7.08
C[C@@H](O)c1nc2cnc3[nH]ccc3c2n1[C@@H]1CCCN(C(=O)C2CCC2)C1 [Example 792, Cyclobutyl-{(R)-3-[2-((R)-1-hydroxy-ethyl)-6H-1,3,5,6-tetraaza-as-indacen-1-yl]-piperidin-1-yl}-methanone]	6.35	6.59	5.97	7.12
CC(C)CC(=O)N1CCC[C@@H](n2c([C@@H](C)O)nc3cnc4[nH]ccc4c32)C1 [Example 793, 1-{(R)-3-[2-((R)-1-Hydroxy-ethyl)-6H-1,3,5,6-tetraaza-as-indacen-1-yl]-piperidin-1-yl}-3-methyl-butan-1-one]	5.70	5.64	5.63	6.57
C[C@@H](O)c1nc2cnc3[nH]ccc3c2n1[C@@H]1CCCN(C(=O)C2CC2)C1 [Example 794, Cyclopropyl-{(R)-3-[2-((R)-1-hydroxy-ethyl)-6H-1,3,5,6-tetraaza-as-indacen-1-yl]-piperidin-1-yl}-methanone]	6.38	6.05	5.91	6.94
CCC(=O)N1CCC[C@@H](n2c([C@@H](C)O)nc3cnc4[nH]ccc4c32)C1 [Example 795, 1-{(R)-3-[2-((R)-1-Hydroxy-ethyl)-6H-1,3,5,6-tetraaza-as-indacen-1-yl]-piperidin-1-yl}-propan-1-one]	6.16	6.06	5.86	6.66
CC(O)c1nc2cnc3[nH]ccc3c2n1C1CCCN(C(=O)C2CC2C)C1 (centres unmarked) [Example 796, {3-[2-(1-Hydroxy-ethyl)-6H-1,3,5,6-tetraaza-as-indacen-1-yl]-piperidin-1-yl}-(2-methyl-cyclopropyl)-methanone]	6.21	6.13	6.05	7.26
CCOC(=O)N1CCC[C@@H](n2c([C@@H](C)O)nc3cnc4[nH]ccc4c32)C1 [Example 800, (R)-3-[2-((R)-1-Hydroxy-ethyl)-6H-1,3,5,6-tetraaza-as-indacen-1-yl]-piperidine-1-carboxylic acid ethyl ester]	5.96	5.84	5.85	6.79
O=C1CCCN1CCc1nc2cnc3[nH]ccc3c2n1C1CCCCC1 [Example 801, 1-[2-(1-Cyclohexyl-1,6-dihydro-1,3,5,6-tetraaza-as-indacen-2-yl)-ethyl]-pyrrolidin-2-one]	7.19	7.29	7.11	8.11
CC(=O)N(C)CCc1nc2cnc3[nH]ccc3c2n1C1CCCCC1 [Example 802, N-[2-(1-Cyclohexyl-1,6-dihydro-1,3,5,6-tetraaza-as-indacen-2-yl)-ethyl]-N-methyl-acetamide]	7.26	7.31	7.10	8.11
CN(C)C(=O)CCc1nc2cnc3[nH]ccc3c2n1C1CCCCC1 [Example 803, 3-(1-Cyclohexyl-1,6-dihydro-1,3,5,6-tetraaza-as-indacen-2-yl)-N,N-dimethyl-propionamide]	7.11	7.36	7.59	7.79
CCN1CCC(n2c(CCNC(C)=O)nc3cnc4[nH]ccc4c32)C(F)(F)C1 (centres unmarked) [Example 807, N-{2-[1-(1-Ethyl-3,3-difluoro-piperidin-4-yl)-1,6-dihydro-1,3,5,6-tetraaza-as-indacen-2-yl]-ethyl}-acetamide]	6.59	7.46	7.80	8.42
CCN1CC[C@@H](n2c(CCNS(C)(=O)=O)nc3cnc4[nH]ccc4c32)[C@@H](F)C1 [Example 808, N-{2-[1-((3S,4R)-1-Ethyl-3-fluoro-piperidin-4-yl)-1,6-dihydro-1,3,5,6-tetraaza-as-indacen-2-yl]-ethyl}-methanesulfonamide]	6.52	7.47	6.89	8.32
CCN1CC[C@@H](n2c(CCNS(=O)(=O)C3CC3)nc3cnc4[nH]ccc4c32)[C@@H](F)C1 [Example 809, Cyclopropanesulfonic acid {2-[1-((3S,4R)-1-ethyl-3-fluoro-piperidin-4-yl)-1,6-dihydro-1,3,5,6-tetraaza-as-indacen-2-yl]-ethyl}-amide]	6.42	7.33	6.79	8.25
CCN1CC[C@@H](n2c(CCNS(=O)(=O)C(C)C)nc3cnc4[nH]ccc4c32)[C@@H](F)C1 [Example 810, Propane-2-sulfonic acid {2-[1-((3S,4R)-1-ethyl-3-fluoro-piperidin-4-yl)-1,6-dihydro-1,3,5,6-tetraaza-as-indacen-2-yl]-ethyl}-amide]	6.41	7.35	6.74	8.24
CCN1CC[C@@H](n2c(CCNC(C)=O)nc3cnc4[nH]ccc4c32)[C@@H](F)C1 [Example 811, N-{2-[1-((3S,4R)-1-Ethyl-3-fluoro-piperidin-4-yl)-1,6-dihydro-1,3,5,6-tetraaza-as-indacen-2-yl]-ethyl}-acetamide]	6.28	7.20	6.89	8.17
N#CCCN1CCC(n2c(CC3CCOCC3)nc3cnc4[nH]ccc4c32)CC1 [Example 812, 3-{4-[2-(Tetrahydro-pyran-4-ylmethyl)-6H-1,3,5,6-tetraaza-as-indacen-1-yl]-piperidin-1-yl}-propionitrile]	6.50	6.67	6.78	7.42
N#CCCN1CCC(n2c(CC3CCCO3)nc3cnc4[nH]ccc4c32)CC1 (centres unmarked) [Example 813, 3-{4-[2-(Tetrahydro-furan-2-ylmethyl)-6H-1,3,5,6-tetraaza-as-indacen-1-yl]-piperidin-1-yl}-propionitrile]	6.44	7.37	7.40	7.68
Cn1ccc(CCc2nc3cnc4[nH]ccc4c3n2C2CCN(CCC#N)CC2)n1 [Example 814, 3-(4-{2-[2-(1-Methyl-1H-pyrazol-3-yl)-ethyl]-6H-1,3,5,6-tetraaza-as-indacen-1-yl}-piperidin-1-yl)-propionitrile]	6.24	7.05	7.04	7.95
CCc1nccn1CCc1nc2cnc3[nH]ccc3c2n1C1CCN(CCC#N)CC1 [Example 815, 3-(4-{2-[2-(2-Ethyl-imidazol-1-yl)-ethyl]-6H-1,3,5,6-tetraaza-as-indacen-1-yl}-piperidin-1-yl)-propionitrile]	6.60	7.04	6.72	7.63
CC(C)c1nccn1CCc1nc2cnc3[nH]ccc3c2n1C1CCN(CCC#N)CC1 [Example 816, 3-(4-{2-[2-(2-Isopropyl-imidazol-1-yl)-ethyl]-6H-1,3,5,6-tetraaza-as-indacen-1-yl}-piperidin-1-yl)-propionitrile]	7.04	7.71	7.04	8.11
CC(F)(F)CCc1nc2cnc3[nH]ccc3c2n1C1CCN(CCC#N)CC1 [Example 817, 3-{4-[2-(3,3-Difluoro-butyl)-6H-1,3,5,6-tetraaza-as-indacen-1-yl]-piperidin-1-yl}-propionitrile]	6.68	7.37	7.20	8.07
C[C@@H](O)c1nc2cnc3[nH]ccc3c2n1C1CCN(Cc2cnn(C)c2)CC1 [Example 818, (R)-1-{1-[1-(1-Methyl-1H-pyrazol-4-ylmethyl)-piperidin-4-yl]-1,6-dihydro-1,3,5,6-tetraaza-as-indacen-2-yl}-ethanol]	5.86	6.42	6.93	8.02
C[C@@H](O)c1nc2cnc3[nH]ccc3c2n1C1CCN(Cc2ccnn2C)CC1 [Example 819, (R)-1-{1-[1-(2-Methyl-2H-pyrazol-3-ylmethyl)-piperidin-4-yl]-1,6-dihydro-1,3,5,6-tetraaza-as-indacen-2-yl}-ethanol]	6.79	7.21	7.35	7.96
CCn1nccc1CN1CCC(n2c([C@@H](C)O)nc3cnc4[nH]ccc4c32)CC1 [Example 820, (R)-1-{1-[1-(2-Ethyl-2H-pyrazol-3-ylmethyl)-piperidin-4-yl]-1,6-dihydro-1,3,5,6-tetraaza-as-indacen-2-yl}-ethanol]	6.78	7.21	7.45	7.92
Cc1cc(CN2CCC(n3c([C@@H](C)O)nc4cnc5[nH]ccc5c43)CC2)n(C)n1 [Example 821, (R)-1-{1-[1-(2,5-Dimethyl-2H-pyrazol-3-ylmethyl)-piperidin-4-yl]-1,6-dihydro-1,3,5,6-tetraaza-as-indacen-2-yl}-ethanol]	6.33	6.90	7.26	7.75
CCn1cc(CN2CCC(n3c([C@@H](C)O)nc4cnc5[nH]ccc5c43)CC2)cn1 [Example 822, (R)-1-{1-[1-(1-Ethyl-1H-pyrazol-4-ylmethyl)-piperidin-4-yl]-1,6-dihydro-1,3,5,6-tetraaza-as-indacen-2-yl}-ethanol]	5.55	6.05	6.51	7.74
